The record followed here is PubChem BioAssay AID651630 (Sanford-Burnham Center for Chemical Genomics, 2012).

pIC50: −log10 of the molar value. Calls of active or inactive are those of the source.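 The calls were made as follows: active = lipid-stain IC50 at or below a set limit, with nuclear-stain toxicity IC50 at least five times higher; inactive = the rest.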

For one assay, the system named is DAPI. Description: triacylglycerol accumulation inhibitor potency, dose response, cell-based, panel, Nile Red and DAPI fluorescence, H9c2 (AID 651630).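 Also: cells exposed to compound overnight before fixation and staining.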 The note with it: H9c2 cells, DAPI nuclear fluorescence (cytotoxicity counter-readout), oleic acid.
The test system of another assay is TAG. The description is as above. The note with it: H9c2 cells, Nile Red TAG fluorescence, oleic acid.

For the compound `CCN(CC)CCNc1ncnc2c1sc1nc(N3CCCC3)c3c(c12)CC(C)(C)OC3`, the IC50 cytotoxicity (DAPI nuclear signal decrease) in the assay with DAPI (mean of runs) is > 25 µM (inactive); with DAPI (run 1) it was more than 25 µM; in the assay on DAPI (run 2) it was more than 25 µM. In addition, in the assay with TAG (mean of runs), the IC50 (commonly the concentration at which inhibition is half-maximal) is 18 µM (inactive). Besides, the values for the pIC50 in the assay on TAG (run 1) and in the assay on TAG (run 2) were 4.77 and 4.72, respectively.
On to `Cc1nn(-c2ccccc2)c2c1CC(=O)Nc1ccccc1-2`, for which the figures for the IC50 cytotoxicity (DAPI nuclear signal decrease) with DAPI (mean of runs), in the assay on DAPI (run 1) and in the assay with DAPI (run 2) were > 25 µM (inactive), more than 25 µM and more than 25 µM, respectively. Also, the pIC50 (in general, the negative decadic logarithm of the IC50, by convention in mol/L) in the assay on TAG (mean of runs) is 5.05; in the assay with TAG (run 1) it was 5.11; in the assay with TAG (run 2), 4.99.
Regarding `COC(=O)Nc1nc2ccc(SC(C)C)cc2[nH]1`, the IC50 cytotoxicity (DAPI nuclear signal decrease) was > 25 µM (inactive) with DAPI (mean of runs), more than 25 µM in the assay on DAPI (run 1) and more than 25 µM with DAPI (run 2). Further, the pIC50 was less than 4.60 with TAG (run 1) and 4.86 in the assay with TAG (run 2).
For the compound `O=C(Nc1ccccc1)c1nc[nH]c1C(=O)NCCCCCCNC(=O)c1[nH]cnc1C(=O)Nc1ccccc1`, the IC50 cytotoxicity (DAPI nuclear signal decrease) with DAPI (mean of runs) is > 25 µM (inactive); in the assay with DAPI (run 1), more than 25 µM; in the assay on DAPI (run 2) it was more than 25 µM. The pIC50 with TAG (run 1) was 4.60; in the assay with TAG (run 2), less than 4.60.
For `COc1ccc(Nc2nc3cc(-c4sccc4C)sc3c(=O)n2C)cc1OC`, the IC50 cytotoxicity (DAPI nuclear signal decrease) in the assay with DAPI (mean of runs) was > 25 µM (inactive); in the assay on DAPI (run 1), more than 25 µM; in the assay on DAPI (run 2), more than 25 µM. For the same compound, in the assay with TAG (mean of runs), the IC50 is 16.6 µM (inactive). For the same compound, the pIC50 in the assay on TAG (run 1) and in the assay with TAG (run 2) was 4.78 in each case.
As to `CN(C)C(=O)c1cccc(-c2cnc3c(NC=O)cc(-c4ccc(C(=O)N5CCOCC5)cc4)cn23)c1`, the IC50 cytotoxicity (DAPI nuclear signal decrease) is > 25 µM (inactive) with DAPI (mean of runs), more than 25 µM in the assay with DAPI (run 1) and more than 25 µM with DAPI (run 2). In addition, the pIC50 with TAG (mean of runs) is 5.06; with TAG (run 1), 5.46; in the assay with TAG (run 2), 4.86.
Take `C=CCC[C@H](Cc1ccc(F)cc1)C(=O)OC[C@H](C)NC(=O)[C@@H](CC=C)CC(=O)N[C@H](CO)Cc1ccccc1`: the IC50 cytotoxicity (DAPI nuclear signal decrease) is > 25 µM (inactive) in the assay with DAPI (mean of runs), more than 25 µM in the assay on DAPI (run 1) and more than 25 µM in the assay on DAPI (run 2). Besides, the IC50 in the assay with TAG (mean of runs) was 15.4 µM (inactive). The pIC50 with TAG (run 1) was 4.92; in the assay with TAG (run 2), 4.72.
Consider `O=C(Nc1cccc2ncccc12)c1ccc(Cl)cc1`, for which the results for the IC50 cytotoxicity (DAPI nuclear signal decrease) in the assay with DAPI (mean of runs), with DAPI (run 1) and with DAPI (run 2) were > 25 µM (inactive), more than 25 µM and more than 25 µM, respectively. For the same compound, the values for the pIC50 with TAG (mean of runs), with TAG (run 1) and in the assay with TAG (run 2) were 5.21, 5.20 and 5.21, respectively.
Take `COc1cc2c(cc1[N+](=O)[O-])-c1ccc([N+](=O)[O-])cc1C2=NNC(N)=S`: the results for the IC50 cytotoxicity (DAPI nuclear signal decrease) with DAPI (mean of runs), in the assay on DAPI (run 1) and with DAPI (run 2) were > 25 µM (inactive), more than 25 µM and more than 25 µM, respectively. In addition, the IC50 with TAG (mean of runs) is > 25 µM (inactive). Moreover, the pIC50 in the assay with TAG (run 1) and in the assay on TAG (run 2) was less than 4.60 each time.
Take `CC(C)(C)N1C(=O)[C@H]2[C@@H](c3ccc(Br)cc3)N3C(=O)N(c4ccc(Br)cc4)C(=O)[C@@]3(Cc3ccccc3)[C@H]2C1=O`: the IC50 cytotoxicity (DAPI nuclear signal decrease) was > 25 µM (inactive) with DAPI (mean of runs), more than 25 µM in the assay on DAPI (run 1) and more than 25 µM in the assay with DAPI (run 2). For the same compound, the IC50 in the assay with TAG (mean of runs) was 17.2 µM (inactive). Also, the pIC50 in the assay with TAG (run 1) is 4.74; in the assay with TAG (run 2), 4.80.
For `CN(Cc1ccccc1)C(=O)c1ccc(Nc2nc(C(N)Cc3ccccc3)cs2)nc1` (configuration not stated), the IC50 cytotoxicity (DAPI nuclear signal decrease) in the assay with DAPI (mean of runs) was > 25 µM (inactive); in the assay on DAPI (run 1), more than 25 µM; with DAPI (run 2), more than 25 µM. For the same compound, the pIC50 in the assay with TAG (run 1) was 4.68; with TAG (run 2), less than 4.60.
Turning to `CCN(CC)c1ccc(/C=C2\CCC(/C=C(/C#N)C(=O)Nc3ccccc3F)=C2N2CCOCC2)cc1`, the IC50 cytotoxicity (DAPI nuclear signal decrease) with DAPI (run 1) and with DAPI (run 2) was more than 25 µM in each case. The pIC50 in the assay on TAG (mean of runs), in the assay with TAG (run 1) and in the assay with TAG (run 2) was more than 6.11 throughout.
Consider `COc1ccc(NC(=O)C2(C)Cc3c(-c4cccc(C(N)=O)c4)ccnc3O2)cc1` (configuration not stated), for which the IC50 cytotoxicity (DAPI nuclear signal decrease) in the assay on DAPI (mean of runs) is > 25 µM (inactive); in the assay with DAPI (run 1) it was more than 25 µM; in the assay on DAPI (run 2), more than 25 µM. The results for the pIC50 with TAG (run 1) and in the assay with TAG (run 2) were less than 4.60 and 4.92, respectively.
In the case of `CC(C)(C)c1cc(NCc2ccccn2)n2ncc(-c3ccc(Cl)cc3)c2n1`, the IC50 cytotoxicity (DAPI nuclear signal decrease) with DAPI (mean of runs) is > 25 µM (inactive); with DAPI (run 1), more than 25 µM; in the assay with DAPI (run 2), more than 25 µM. Besides, the IC50 in the assay with TAG (mean of runs) is > 25 µM (inactive). Besides, the pIC50 in the assay on TAG (run 1) and in the assay with TAG (run 2) was less than 4.60 in each case.
Regarding `CCOC(=O)Nc1ccc2c(c1)C(=NNC(=S)NC)c1ccccc1-2`, the IC50 cytotoxicity (DAPI nuclear signal decrease) was more than 25 µM in the assay with DAPI (run 1) and 9.75 µM in the assay on DAPI (run 2). For the same compound, in the assay on TAG (mean of runs), the IC50 was > 25 µM (inactive). Besides, the pIC50 in the assay on TAG (run 1) and with TAG (run 2) was less than 4.60 in each case.
For the compound `O=C(Nc1ccc(-c2csc(Nc3cccc(C(F)(F)F)c3)n2)cc1)c1ccccc1`, the values for the IC50 cytotoxicity (DAPI nuclear signal decrease) with DAPI (mean of runs), in the assay on DAPI (run 1) and in the assay with DAPI (run 2) were > 25 µM (inactive), more than 25 µM and more than 25 µM, respectively. Moreover, the pIC50 in the assay with TAG (run 1) was 4.65; with TAG (run 2), less than 4.60.
In the case of `COC(=O)C1=C(C)N(Cc2ccccc2)C(=NCc2cc(OC)c(OC)c(OC)c2)N[C@H]1c1ccc(Br)cc1`, the IC50 cytotoxicity (DAPI nuclear signal decrease) with DAPI (mean of runs) was > 25 µM (inactive); in the assay on DAPI (run 1), more than 25 µM; with DAPI (run 2), more than 25 µM. Besides, the IC50 in the assay with TAG (mean of runs) is > 25 µM (inactive). The pIC50 in the assay on TAG (run 1) and in the assay on TAG (run 2) was less than 4.60 in each case.
As for `Nc1ccccc1Nc1cccc(C(F)(F)F)c1`, the results for the IC50 cytotoxicity (DAPI nuclear signal decrease) with DAPI (mean of runs), in the assay on DAPI (run 1) and in the assay with DAPI (run 2) were > 25 µM (inactive), more than 25 µM and more than 25 µM, respectively. Also, the results for the pIC50 in the assay on TAG (mean of runs), with TAG (run 1) and in the assay with TAG (run 2) were 4.95, 5.02 and 4.89, respectively.
Turning to `COc1cc(-c2cnc3c(NC=O)cc(-c4cccc(NC(C)=O)c4)cn23)cc(OC)c1OC`, the IC50 cytotoxicity (DAPI nuclear signal decrease) in the assay with DAPI (mean of runs) was > 25 µM (inactive); in the assay on DAPI (run 1), more than 25 µM; in the assay on DAPI (run 2), more than 25 µM. Also, the negative logarithm of the IC50 (pIC50) with TAG (mean of runs) is 5.26; in the assay with TAG (run 1) it was 5.34; in the assay with TAG (run 2), 5.20.
For the compound `c1ccc(N=NC2=NN(c3ccccc3)CS2)cc1`, the IC50 cytotoxicity (DAPI nuclear signal decrease) with DAPI (run 1) and with DAPI (run 2) was more than 25 µM in each case. Moreover, the pIC50 with TAG (mean of runs) is 5.43; in the assay on TAG (run 1), 5.45; with TAG (run 2), 5.42.
